In US9359297B2, “Spirolactam derivatives and uses of same” (H. Lundbeck A/S, priority 2009, dated 2016):

Biological target: T1, human metabotropic glutamate receptor 5 (hmGluR5) (Homo sapiens, UniProt P41594)
T1 construct: expressed in transfected cells
Test: Calcium mobilization (FLIPR) assay for negative allosteric modulation, EC80 glutamate, hmGluR5 in HEK 293
Type: cell-based
Conditions: HEK293; hmGluR5, inhibition of EC80 glutamate response; read-out: FLIPR maximum inhibition
Method: The cDNA for rat metabotropic glutamate receptor 5 (rmGluR5) and the cDNA for human metabotropic glutamate receptor 5 (hmGluR5) were generous gifts from S. Nakanishi (Kyoto University, Kyoto, Japan). The rmGluR5 or hmGluR5 was stably expressed in a HEK 293 cell line and grown in Dulbecco's Modified Eagle Medium (DMEM) (Invitrogen, Carlsbad, Calif.) with supplements (10% bovine calf serum, 4 mM glutamine, 100 units/mL penicillin, 100 μg/mL streptomycin and 0.75 mM G1418) at 37° C., 5% CO2. Twenty-four hours prior to assay, cells were seeded into 384-well black wall microtiter plates coated with poly-D-lysine. Just prior to assay, media was aspirated and cells dye-loaded (25 μL/well) with 3 μM Fluo-4/0.01% pluronic acid in assay buffer (Hank's Balanced Saline Solution (HBSS)): 150 mM NaCl, 5 mM KCl, 1 mM CaCl2, 1 mM MgCl2, plus 20 mM N-2-Hydroxyethylpiperazine-N′-2-ethanesulfonic acid (HEPES), pH 7.4, 0.1% bovine serum albumin (BSA) and 2.5 mM probenicid) for 1 hour in 5% CO2 at 37° C. After excess dye was discarded, cells were washed in assay buffer and layered with a final volume equal to 30 μL/well. Basal fluorescence is monitored in a fluorometric imaging plate reader (FLIPR) (Molecular Devices, Sunnyvale, Calif.) with an excitation wavelength of 488 nm and an emission range of 500 to 560 nm. Laser excitation energy was adjusted so that basal fluorescence readings were approximately 10,000 relative fluorescent units. Cells were stimulated with an EC20 or an EC80 concentration of glutamate in the presence of a compound to be tested, both diluted in assay buffer, and relative fluorescent units were measured at defined intervals (exposure=0.6 sec) over a 3 min period at room temperature. Basal readings derived from negative controls were subtracted from all samples. Maximum change in fluorescence was calculated for each well. Concentration-response curves derived from the maximum change in fluorescence were analyzed by nonlinear regression (Hill equation). A negative modulator can be identified from these concentration-response curves if a compound produces a concentration dependent inhibition of the EC80 glutamate response.

T1 sequence (P41594 21-1212): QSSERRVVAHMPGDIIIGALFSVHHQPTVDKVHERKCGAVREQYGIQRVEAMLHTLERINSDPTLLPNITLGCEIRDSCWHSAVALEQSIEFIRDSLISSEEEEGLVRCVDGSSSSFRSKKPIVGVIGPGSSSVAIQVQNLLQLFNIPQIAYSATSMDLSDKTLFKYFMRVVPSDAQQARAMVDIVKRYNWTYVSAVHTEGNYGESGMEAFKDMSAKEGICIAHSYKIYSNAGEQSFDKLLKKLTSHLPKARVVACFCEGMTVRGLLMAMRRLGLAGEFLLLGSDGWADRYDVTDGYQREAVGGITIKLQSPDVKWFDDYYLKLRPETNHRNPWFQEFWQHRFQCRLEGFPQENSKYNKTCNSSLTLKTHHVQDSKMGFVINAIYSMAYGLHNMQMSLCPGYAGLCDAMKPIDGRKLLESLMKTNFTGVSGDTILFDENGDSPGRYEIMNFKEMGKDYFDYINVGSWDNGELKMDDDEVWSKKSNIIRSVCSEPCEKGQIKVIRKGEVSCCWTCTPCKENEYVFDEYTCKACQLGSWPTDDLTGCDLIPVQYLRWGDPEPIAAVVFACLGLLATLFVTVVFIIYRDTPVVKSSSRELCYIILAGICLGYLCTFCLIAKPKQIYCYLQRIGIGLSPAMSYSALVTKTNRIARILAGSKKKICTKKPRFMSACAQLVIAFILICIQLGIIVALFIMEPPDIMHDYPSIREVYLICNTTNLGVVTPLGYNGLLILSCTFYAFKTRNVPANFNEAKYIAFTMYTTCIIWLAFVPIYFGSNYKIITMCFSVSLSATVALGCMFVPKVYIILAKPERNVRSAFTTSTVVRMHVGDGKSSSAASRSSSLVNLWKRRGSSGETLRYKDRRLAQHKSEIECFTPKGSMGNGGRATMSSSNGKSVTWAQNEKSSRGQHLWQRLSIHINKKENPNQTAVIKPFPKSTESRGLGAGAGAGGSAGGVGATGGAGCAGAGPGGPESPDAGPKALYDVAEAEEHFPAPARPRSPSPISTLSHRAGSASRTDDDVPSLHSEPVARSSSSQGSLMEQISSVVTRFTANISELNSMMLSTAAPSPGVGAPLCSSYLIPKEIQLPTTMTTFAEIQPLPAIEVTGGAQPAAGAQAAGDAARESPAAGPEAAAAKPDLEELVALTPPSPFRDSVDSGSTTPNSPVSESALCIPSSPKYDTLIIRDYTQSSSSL

Work on `Cc1ccc(N2CC[C@]3(CCC[C@H](NC(=O)c4cccc(C)n4)C3)C2=O)cn1` (relative stereo) [Example 63, cis-6-Methyl-pyridine-2-carboxylic acid [2-(6-methyl-pyridin-3-yl)-1-oxo-2-aza-spiro[4.5]dec-7-yl]-amide] yielded an Emax of 73 to 95%.
In the case of `O=C(N[C@H]1CCC[C@]2(CCN(c3cc(-c4ccc(F)cc4)ncn3)C2=O)C1)c1cccc(F)c1` (relative stereo) [Example 88, cis-3-Fluoro-N-{2-[6-(4-fluoro-phenyl)-pyrimidin-4-yl]-1-oxo-2-aza-spiro[4.5]dec-7-yl}-benzamide], the Emax was 73 to 95%.
With `O=C(N[C@H]1CC(F)(F)C[C@@]2(CCN(c3cccc(F)c3)C2=O)C1)c1ccccn1` (single isomer, unassigned) [Example 101] the Emax was 47 to 93%.
Work on `Cc1cccc(C(=O)N[C@H]2CCC[C@]3(CCN(c4cncc(F)c4)C3=O)C2)n1` (relative stereo) [Example 64, cis-6-Methyl-pyridine-2-carboxylic acid [2-(5-fluoro-pyridin-3-yl)-1-oxo-2-aza-spiro[4.5]dec-7-yl]-amide] yielded an Emax of 73 to 95%.
With `N#Cc1cc(F)cc(N2CC[C@@]3(CCC[C@@H](NC(=O)c4cccc(F)c4)C3)C2=O)c1` (relative stereo) [Example 142, cis-N-[2-(3-Cyano-5-fluoro-phenyl)-1-oxo-2-aza-spiro[4.5]dec-7-yl]-3-fluoro-benzamide] the Emax was 47 to 93%.
In the case of `O=C(N[C@H]1CCC[C@]2(CCN(c3cccc(F)c3)C2=O)C1)c1ccncc1` (relative stereo) [Example 77, cis-N-[2-(3-Fluoro-phenyl)-1-oxo-2-aza-spiro[4.5]dec-7-yl]-isonicotinamide], the Emax was 73 to 95%.
`Cc1cccc(C(=O)N[C@@H]2CCC[C@@]3(CCN(c4ccnc(C)n4)C3=O)C2)c1` [Example 152, 3-Methyl-N-[(5R,7R)-2-(2-methyl-pyrimidin-4-yl)-1-oxo-2-aza-spiro[4.5]dec-7-yl]-benzamide] was tested, and the Emax was 47 to 93%.
For `Cc1nccc(C(=O)N[C@H]2CCC[C@]3(CCN(c4cccc(C#N)c4)C3=O)C2)n1` (relative stereo) [Example 60, cis-2-Methyl-pyrimidine-4-carboxylic acid [2-(3-cyano-phenyl)-1-oxo-2-aza-spiro [4.5]dec-7-yl]-amide], the Emax was 73 to 95%.
`Cc1nccc(N2CC[C@]3(CCC[C@H](NC(=O)c4cccc(F)c4)C3)C2=O)n1` (relative stereo) [Example 65, cis-3-Fluoro-N-[2-(2-methyl-pyrimidin-4-yl)-1-oxo-2-aza-spiro[4.5]dec-7-yl]-benzamide] showed an Emax of 73 to 95%.
In the case of `O=C(N[C@H]1CC(F)(F)C[C@]2(CCN(c3cccc(F)c3)C2=O)C1)c1ccccn1` (single isomer, unassigned) [Example 99], the Emax was 88 to 93%.
Work on `CN(C)c1ccc(N2CC[C@]3(CCC[C@H](NC(=O)c4cccc(F)c4)C3)C2=O)cc1` (relative stereo) [Example 138, cis-N-[2-(4-Dimethylamino-phenyl)-1-oxo-2-aza-spiro[4.5]dec-7-yl]-3-fluoro-benzamide] yielded an Emax of 47 to 93%.
Work on `Cc1nccc(N2CC[C@]3(CCC[C@H](NC(=O)c4ccc(F)cn4)C3)C2=O)n1` (relative stereo) [Example 149] yielded an Emax of 47 to 93%.
`Cc1nccc(N2CC[C@]3(CCC[C@H](NC(=O)c4cccc(Cl)c4)C3)C2=O)n1` (racemic) [Example 58] showed an Emax of 73 to 95%.
In the case of `Cc1nccc(C(=O)N[C@@H]2C[C@@](C)(O)C[C@@]3(CCN(c4cc(F)cc(F)c4)C3=O)C2)n1` (single isomer, unassigned) [Example 118, trans-2-Methyl-pyrimidine-4-carboxylic acid [2-(3,5-difluoro-phenyl)-9-hydroxy-9-methyl-1-oxo-2-aza-spiro[4.5]dec-7-yl]-amide], the Emax was 47 to 93%.
For `Cc1nccc(N2CC[C@]3(CCC[C@H](NC(=O)c4ccccc4F)C3)C2=O)n1` (relative stereo) [Example 91, cis-2-Fluoro-N-[2-(2-methyl-pyrimidin-4-yl)-1-oxo-2-aza-spiro [4.5]dec-7-yl]-benzamide], the Emax was 73 to 95%.
For `Cc1cccc(C(=O)N[C@H]2CCC[C@]3(CCN(c4ccnc(C)n4)C3=O)C2)c1` (racemic) [Example 84, cis-3-Methyl-N-[2-(2-methyl-pyrimidin-4-yl)-1-oxo-2-aza-spiro [4.5]dec-7-yl]-benzamide], the Emax was 73 to 95%.
`Cc1cccc(C(=O)N[C@H]2CCC[C@]3(CCN(c4cc(-c5ccc(F)cc5)ncn4)C3=O)C2)n1` (relative stereo) [Example 87, cis-6-Methyl-pyridine-2-carboxylic acid {2-[6-(4-fluoro-phenyl)-pyrimidin-4-yl]-1-oxo-2-aza-spiro [4.5]dec-7-yl}-amide] gave an Emax of 73 to 95%.
Work on `Cc1nccc(C(=O)N[C@H]2CCC[C@]3(CCN(c4cccc(F)c4)C3=O)C2)n1` (relative stereo) [Example 69, cis-2-Methyl-pyrimidine-4-carboxylic acid [2-(3-fluoro-phenyl)-1-oxo-2-aza-spiro[4.5]dec-7-yl]-amide] yielded an Emax of 73 to 95%.
Molecule `Cc1cccc(C(=O)N[C@H]2CCC[C@]3(CCN(c4cc(F)cc(F)c4)C3=O)C2)n1` (single isomer, unassigned) [Example 81] has an Emax of 73 to 95%.
Work on `Cc1cccc(C(=O)N[C@H]2CC(F)(F)C[C@]3(CCN(c4ccc(F)cn4)C3=O)C2)n1` (single isomer, unassigned) [Example 127] yielded an Emax of 47 to 93%.
`O=C(N[C@H]1CCC[C@]2(CCN(c3cccc(F)c3)C2=O)C1)c1ccc(F)cn1` (relative stereo) [Example 68, cis-5-Fluoro-pyridine-2-carboxylic acid [2-(3-fluoro-phenyl)-1-oxo-2-aza-spiro [4.5]dec-7-yl]-amide] showed an Emax of 73 to 95%.
With `Cc1nccc(N2CC[C@@]3(C[C@@H](NC(=O)c4cccc(F)c4)CC(F)(F)C3)C2=O)n1` (single isomer, unassigned) [Example 120] the Emax was 47 to 93%.
`Cc1cncc(C(=O)N[C@H]2CCC[C@]3(CCN(c4cc(-c5ccc(F)cc5)ncn4)C3=O)C2)n1` (relative stereo) [Example 86, cis-6-Methyl-pyrazine-2-carboxylic acid {2-[6-(4-fluoro-phenyl)-pyrimidin-4-yl]-1-oxo-2-aza-spiro [4.5]dec-7-yl}-amide] gave an Emax of 73 to 95%.
`Cc1nccc(N2CC[C@]3(C[C@H](NC(=O)c4ccccn4)CC(F)(F)C3)C2=O)n1` (relative stereo) [Example 112, cis-Pyridine-2-carboxylic acid [9,9-difluoro-2-(2-methyl-pyrimidin-4-yl)-1-oxo-2-aza-spiro[4.5]dec-7-yl]-amide] showed an Emax of 47 to 93%.
`Cc1nccc(C(=O)N[C@@H]2CC(F)(F)C[C@]3(CCN(c4cc(F)cc(F)c4)C3=O)C2)n1` (relative stereo) [Example 105, trans-2-Methyl-pyrimidine-4-carboxylic acid [2-(3,5-difluoro-phenyl)-9,9-difluoro-1-oxo-2-aza-spiro[4.5]dec-7-yl]-amide] showed an Emax of 47 to 93%.
With `Cc1nccc(C(=O)N[C@@H]2CC(=O)C[C@@]3(CCN(c4cc(F)cc(F)c4)C3=O)C2)n1` (relative stereo) [Example 115, cis-2-Methyl-pyrimidine-4-carboxylic acid [2-(3,5-difluoro-phenyl)-1,9-dioxo-2-aza-spiro[4.5]dec-7-yl]-amide] the Emax was 47 to 93%.
`Cc1nccc(C(=O)N[C@@H]2C[C@@H](O)C[C@@]3(CCN(c4cc(F)cc(F)c4)C3=O)C2)n1` (relative stereo) [Example 117, trans-2-Methyl-pyrimidine-4-carboxylic acid [2-(3,5-difluorphenyl)-9-hydroxy-1-oxo-2-aza-spiro[4.5]dec-7-yl]-amide] was tested, and the Emax was 47 to 93%.
`CC1(F)CC(NC(=O)c2ccccn2)CC2(CCN(c3cccc(F)c3)C2=O)C1` (stereo not shown) [Example 160, Pyridine-2-carboxylic acid [9-fluoro-2-(3-fluoro-phenyl)-9-methyl-1-oxo-2-aza-spiro[4.5]dec-7-yl]-amide] gave an Emax of 47 to 93%.
For `Cc1nccc(N2CC[C@]3(CCC[C@H](NC(=O)c4cccc(C(F)(F)F)n4)C3)C2=O)n1` (relative stereo) [Example 96, cis-6-Trifluoromethyl-pyridine-2-carboxylic acid [2-(2-methyl-pyrimidin-4-yl)-1-oxo-2-aza-spiro [4.5]dec-7-yl]-amide], the Emax was 73 to 95%.
`O=C(N[C@H]1CCC[C@]2(CCN(c3nccs3)C2=O)C1)c1cccc(F)c1` (relative stereo) [Example 139, cis-3-Fluoro-N-(1-oxo-2-thiazol-2-yl-2-aza-spiro[4.5]dec-7-yl)-benzamide] showed an Emax of 47 to 93%.
Molecule `Cc1cc(C(=O)N[C@H]2CCC[C@]3(CCN(c4ccnc(C)n4)C3=O)C2)ccn1` (relative stereo) [Example 92, cis-2-Methyl-N-[2-(2-methyl-pyrimidin-4-yl)-1-oxo-2-aza-spiro [4.5]dec-7-yl]-isonicotinamide] has an Emax of 73 to 95%.
